Results taken from PubChem BioAssay AID1259407 (Chemical Carcinogenesis Research Information System (CCRIS), 2018).
Calls of active or inactive are those of the source. No rule for the calls is given here.

System: CCRIS mutagenicity, Ames/micronucleus/aberration tests
Experiment: CCRIS mutagenicity studies

ClCCl
mutagenic call (End Point: IN VITRO CHROMOSOMAL ABERRATIONS, Test System: CHO CELLS, Metabolic Activation: NONE): inactive; negative | mutagenic call (End Point: IN VITRO CHROMOSOMAL ABERRATIONS, Test System: CHO CELLS, Metabolic Activation: RAT, LIVER, S-9, AROCLOR 1254): inactive; negative | mutagenic call (Test System: AMES SALMONELLA TYPHIMURIUM, Strain/Indicator: NG54 (GSH), Metabolic Activation: GLUTATHIONE): active; positive | mutagenic call (Test System: AMES SALMONELLA TYPHIMURIUM, Strain/Indicator: NG54 (GSH), Metabolic Activation: NONE): active; positive | mutagenic call (Test System: AMES SALMONELLA TYPHIMURIUM, Strain/Indicator: NG54 (GSH), Metabolic Activation: RAT, LIVER, S-9, AROCLOR 1254): active; positive | mutagenic call (Test System: AMES SALMONELLA TYPHIMURIUM, Strain/Indicator: NG54 (GSH), Metabolic Activation: RAT, LIVER, S-9, AROCLOR 1254, GLUTATHIONE): active; positive | mutagenic call (Test System: AMES SALMONELLA TYPHIMURIUM, Strain/Indicator: NG-11, Metabolic Activation: GLUTATHIONE, Method: DESICCATOR): active; positive | mutagenic call (Test System: AMES SALMONELLA TYPHIMURIUM, Strain/Indicator: NG-11, Metabolic Activation: NONE, Method: DESICCATOR): active; positive | mutagenic call (Test System: AMES SALMONELLA TYPHIMURIUM, Strain/Indicator: RSJ100, Metabolic Activation: NONE, Method: STANDARD PLATE): active; positive | mutagenic call (Test System: AMES SALMONELLA TYPHIMURIUM, Strain/Indicator: TA97, Metabolic Activation: NONE, Method: STANDARD PLATE): active; positive | mutagenic call (Test System: AMES SALMONELLA TYPHIMURIUM, Strain/Indicator: TA97, Metabolic Activation: RAT, LIVER, S-9, AROCLOR 1254, Method: STANDARD PLATE): active; positive | mutagenic call (Test System: AMES SALMONELLA TYPHIMURIUM, Strain/Indicator: TA98, Metabolic Activation: NONE, Method: GAS EXPOSURE): active; positive | mutagenic call (Test System: AMES SALMONELLA TYPHIMURIUM, Strain/Indicator: TA98, Metabolic Activation: NONE, Method: STANDARD PLATE): inactive; negative | mutagenic call (Test System: AMES SALMONELLA TYPHIMURIUM, Strain/Indicator: TA98, Metabolic Activation: RAT, LIVER, S-9, AROCLOR 1254, Method: STANDARD PLATE): active; positive | mutagenic call (Test System: AMES SALMONELLA TYPHIMURIUM, Strain/Indicator: TA98, Metabolic Activation: RAT, LIVER, S-9, PHENOBARBITAL AND BETA-NAPHTHOFLAVONE, Method: GAS EXPOSURE): active; positive | mutagenic call (Test System: AMES SALMONELLA TYPHIMURIUM, Strain/Indicator: TA98, Metabolic Activation: RAT, LIVER, S-9, PHENOBARBITAL, Method: DESICCATOR): active; positive | mutagenic call (Test System: AMES SALMONELLA TYPHIMURIUM, Strain/Indicator: TA100, Metabolic Activation: GLUTATHIONE): active; positive | mutagenic call (Test System: AMES SALMONELLA TYPHIMURIUM, Strain/Indicator: TA100, Metabolic Activation: GLUTATHIONE, Method: DESICCATOR): active; positive | mutagenic call (Test System: AMES SALMONELLA TYPHIMURIUM, Strain/Indicator: TA100, Metabolic Activation: NONE): active; positive | mutagenic call (Test System: AMES SALMONELLA TYPHIMURIUM, Strain/Indicator: TA100, Metabolic Activation: NONE, Method: DESICCATOR): active; positive | mutagenic call (Test System: AMES SALMONELLA TYPHIMURIUM, Strain/Indicator: TA100, Metabolic Activation: NONE, Method: GAS EXPOSURE): active; positive | mutagenic call (Test System: AMES SALMONELLA TYPHIMURIUM, Strain/Indicator: TA100, Metabolic Activation: RAT, LIVER, MICROSOMES, AROCLOR 1254): active; positive | mutagenic call (Test System: AMES SALMONELLA TYPHIMURIUM, Strain/Indicator: TA100, Metabolic Activation: RAT, LIVER, S-9, AROCLOR 1254): active; positive | mutagenic call (Test System: AMES SALMONELLA TYPHIMURIUM, Strain/Indicator: TA100, Metabolic Activation: RAT, LIVER, S-9, AROCLOR 1254, GLUTATHIONE): active; positive | mutagenic call (Test System: AMES SALMONELLA TYPHIMURIUM, Strain/Indicator: TA100, Metabolic Activation: RAT, LIVER, S-9, AROCLOR 1254, Method: STANDARD PLATE): active; positive | mutagenic call (Test System: AMES SALMONELLA TYPHIMURIUM, Strain/Indicator: TA100, Metabolic Activation: RAT, LIVER, S-9, PHENOBARBITAL AND BETA-NAPHTHOFLAVONE, Method: GAS EXPOSURE): active; positive | mutagenic call (Test System: AMES SALMONELLA TYPHIMURIUM, Strain/Indicator: TA100, Metabolic Activation: RAT, LIVER, S-9, PHENOBARBITAL, Method: DESICCATOR): active; positive | mutagenic call (Test System: AMES SALMONELLA TYPHIMURIUM, Strain/Indicator: TA100, Metabolic Activation: RAT, LIVER, S-100, AROCLOR 1254): active; positive | mutagenic call (Test System: AMES SALMONELLA TYPHIMURIUM, Strain/Indicator: TA102, Metabolic Activation: NONE, Method: STANDARD PLATE): inactive; negative | mutagenic call (Test System: AMES SALMONELLA TYPHIMURIUM, Strain/Indicator: TA104, Metabolic Activation: NONE, Method: STANDARD PLATE): active; positive | mutagenic call (Test System: AMES SALMONELLA TYPHIMURIUM, Strain/Indicator: TA104, Metabolic Activation: RAT, LIVER, S-9, AROCLOR 1254, Method: STANDARD PLATE): inactive; negative | mutagenic call (Test System: AMES SALMONELLA TYPHIMURIUM, Strain/Indicator: TA1535 (GST+), Metabolic Activation: NONE, Method: STANDARD PLATE): active; positive | mutagenic call (Test System: AMES SALMONELLA TYPHIMURIUM, Strain/Indicator: TA1535, Metabolic Activation: NONE, Method: GAS EXPOSURE): active; positive | mutagenic call (Test System: AMES SALMONELLA TYPHIMURIUM, Strain/Indicator: TA1535, Metabolic Activation: NONE, Method: STANDARD PLATE): inactive; negative | mutagenic call (Test System: AMES SALMONELLA TYPHIMURIUM, Strain/Indicator: TA1535, Metabolic Activation: RAT, LIVER, S-9, PHENOBARBITAL AND BETA-NAPHTHOFLAVONE, Method: GAS EXPOSURE): active; positive | mutagenic call (Test System: AMES SALMONELLA TYPHIMURIUM, Strain/Indicator: TA1537, Metabolic Activation: NONE, Method: GAS EXPOSURE): inactive; negative | mutagenic call (Test System: AMES SALMONELLA TYPHIMURIUM, Strain/Indicator: TA1537, Metabolic Activation: RAT, LIVER, S-9, PHENOBARBITAL AND BETA-NAPHTHOFLAVONE, Method: GAS EXPOSURE): inactive; negative | mutagenic call (Test System: AMES SALMONELLA TYPHIMURIUM, Strain/Indicator: TA2638, Metabolic Activation: NONE, Method: STANDARD PLATE): inactive; negative | mutagenic call (Test System: CHINESE HAMSTER OVARY, Strain/Indicator: CHO-K1 (HPRT)/6-THIOGUANINE, Metabolic Activation: MOUSE, LIVER, S-100 (2.5-25%), 5 MILLIMOLAR GLUTATHIONE, Method: SUSPENSION/PLATE): active; positive | mutagenic call (Test System: CHINESE HAMSTER OVARY, Strain/Indicator: CHO-K1 (HPRT)/6-THIOGUANINE, Metabolic Activation: MOUSE, LIVER, S-100 (15-25%), DL-BUTHIONINE-(S,R)-SULFOXIMINE, Method: SUSPENSION): inactive; negative | mutagenic call (Test System: CHINESE HAMSTER OVARY, Strain/Indicator: CHO-K1 (HPRT)/6-THIOGUANINE, Metabolic Activation: MOUSE, LIVER, S-100 (15-35%), 5 MILLIMOLAR GLUTATHIONE, Method: SUSPENSION): active; positive | mutagenic call (Test System: E. COLI, Strain/Indicator: K12(AB1157), Metabolic Activation: MOUSE, LIVER, S-9, Method: SUSPENSION/PLATE): active; positive | mutagenic call (Test System: E. COLI, Strain/Indicator: K12(AB1157), Metabolic Activation: NONE, Method: SUSPENSION/PLATE): inactive; negative | mutagenic call (Test System: E. COLI, Strain/Indicator: K12(AB1157), Metabolic Activation: RAT, LIVER, S-9, Method: SUSPENSION/PLATE): inactive; negative | mutagenic call (Test System: E. COLI, Strain/Indicator: K12(AB1886) UVRA, Metabolic Activation: MOUSE, LIVER, S-9, Method: SUSPENSION/PLATE): inactive; negative | mutagenic call (Test System: E. COLI, Strain/Indicator: K12(AB1886) UVRA, Metabolic Activation: NONE, Method: SUSPENSION/PLATE): inactive; negative | mutagenic call (Test System: E. COLI, Strain/Indicator: K12(AB1886) UVRA, Metabolic Activation: RAT, LIVER, S-9, Method: SUSPENSION/PLATE): inactive; negative | mutagenic call (Test System: E. COLI, Strain/Indicator: WP2 (PKM101), Metabolic Activation: NONE, Method: STANDARD PLATE): inactive; negative | mutagenic call (Test System: E. COLI, Strain/Indicator: WP2 UVRA (PKM101), Metabolic Activation: NONE): active; positive | mutagenic call (Test System: E. COLI, Strain/Indicator: WP2 UVRA (PKM101), Metabolic Activation: NONE, Method: STANDARD PLATE): inactive; negative | mutagenic call (Test System: E. COLI, Strain/Indicator: WP2 UVRA (PKM101), Metabolic Activation: RAT, LIVER, HOMOGENATE, AROCLOR 1254): active; positive | mutagenic call (Test System: E. COLI, Strain/Indicator: WP2 UVRA (PKM101), Metabolic Activation: RAT, LIVER, MICROSOMES, AROCLOR 1254): active; positive | mutagenic call (Test System: E. COLI, Strain/Indicator: WP2 UVRA (PKM101), Metabolic Activation: RAT, LIVER, S-9, AROCLOR 1254): active; positive | mutagenic call (Test System: E. COLI, Strain/Indicator: WP2 UVRA (PKM101), Metabolic Activation: RAT, LIVER, S-100, AROCLOR 1254): active; positive | mutagenic call (Test System: E. COLI, Strain/Indicator: WP2UVRA/PKM101, Metabolic Activation: NONE, Method: GAS EXPOSURE): active; positive | mutagenic call (Test System: E. COLI, Strain/Indicator: WP2UVRA/PKM101, Metabolic Activation: RAT, LIVER, S-9, PHENOBARBITAL AND BETA-NAPHTHOFLAVONE, Method: GAS EXPOSURE): active; positive | mutagenic call (Test System: E. COLI, Strain/Indicator: WP2UVRA, Metabolic Activation: NONE, Method: GAS EXPOSURE): active; positive | mutagenic call (Test System: E. COLI, Strain/Indicator: WP2UVRA, Metabolic Activation: RAT, LIVER, S-9, PHENOBARBITAL AND BETA-NAPHTHOFLAVONE, Method: GAS EXPOSURE): active; positive | mutagenic call (Test System: Mouse lymphoma, Strain/Indicator: L5178Y (tk+/tk-), Metabolic Activation: None, Method: Suspension/plate): inactive; negative | mutagenic call (Test System: Mouse lymphoma, Strain/Indicator: L5178Y (tk+/tk-), Metabolic Activation: Rat, Liver, S-9, Aroclor 1254, Method: Suspension/plate): inactive; negative
